Measurements published in patent US10336762B2 (priority 2017, dated 2019).

What was measured:
TNFα = assay: cells; type: cell-based, human; settings: Homo sapiens, Monocyte, LPS-stimulated human monocytes, TNFα content; read-out: EC50 TNF
IRAK4 enzyme = IRAK4 enzyme (Homo sapiens (Human), UniProt Q9NWZ3); assay: biochemical; type: biochemical; settings: IRAK4 enzyme, TR-FRET (HTRF), 500 μM ATP
IRAK4 enzyme, sequence (Q9NWZ3 whole entry): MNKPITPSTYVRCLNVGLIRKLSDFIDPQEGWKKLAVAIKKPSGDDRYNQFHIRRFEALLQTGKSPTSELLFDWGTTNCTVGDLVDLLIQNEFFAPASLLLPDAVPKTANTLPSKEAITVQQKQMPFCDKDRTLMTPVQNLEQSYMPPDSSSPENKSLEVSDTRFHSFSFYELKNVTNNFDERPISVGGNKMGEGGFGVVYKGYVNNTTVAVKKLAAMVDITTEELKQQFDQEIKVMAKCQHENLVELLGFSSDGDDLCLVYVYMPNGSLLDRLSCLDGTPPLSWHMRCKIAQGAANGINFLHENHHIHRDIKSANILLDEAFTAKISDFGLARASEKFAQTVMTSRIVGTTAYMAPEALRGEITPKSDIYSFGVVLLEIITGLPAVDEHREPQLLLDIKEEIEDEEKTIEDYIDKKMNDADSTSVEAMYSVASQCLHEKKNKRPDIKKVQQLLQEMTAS

Structure (SMILES)	EC50 (TNFα) [nM]	IC50 (IRAK4 enzyme) [nM]
CC(C)(O)[C@H](F)CNC(=O)c1cnc(-c2ccc3cc(C#N)cnn23)cc1Nc1cnc2c(c1)CC(=O)N2 [Example 668, (R)-6-(3-cyanopyrrolo[1,2-b]pyridazin-7-yl)-N-(2-fluoro-3-hydroxy-3-methylbutyl)-4-((2-oxo-2,3-dihydro-1H-pyrrolo[2,3-b]pyridin-5-yl)amino)nicotinamide]	165	1
CN(C)c1ncc(Nc2cc(-c3ccc4cc(C#N)cnn34)ncc2C(=O)NC[C@@H](F)C(C)(C)O)cn1 [Example 669, (R)-6-(3-cyanopyrrolo[1,2-b]pyridazin-7-yl)-4-((2-(dimethylamino)pyrimidin-5-yl)amino)-N-(2-fluoro-3-hydroxy-3-methylbutyl) nicotinamide]	4	< 1
CC(C)(O)[C@H](F)CNC(=O)c1cnc(-c2ccc3cc(C#N)cnn23)cc1Nc1ccc(CO)cn1 [Example 670, (R)-6-(3-cyanopyrrolo[1,2-b]pyridazin-7-yl)-N-(2-fluoro-3-hydroxy-3-methylbutyl)-4-((5-(hydroxymethyl)pyridin-2-yl)amino)nicotinamide]	> 10000	93
CC(C)(O)[C@H](F)CNC(=O)c1cnc(-c2ccc3cc(C#N)cnn23)cc1Nc1cnc(N2CCOCC2)nc1 [Example 671, (R)-6-(3-cyanopyrrolo[1,2-b]pyridazin-7-yl)-N-(2-fluoro-3-hydroxy-3-methylbutyl)-4-((2-morpholinopyrimidin-5-yl)amino)nicotinamide]	22	< 1
CC(C)(O)[C@H](F)CNC(=O)c1cnc(-c2ccc3cc(C#N)cnn23)cc1NC1Cc2ccncc2C1 (stereo partly drawn) [Example 672, 6-(3-cyanopyrrolo[1,2-b]pyridazin-7-yl)-4-((6,7-dihydro-5H-cyclopenta[c]pyridin-6-yl)amino)-N-((R)-2-fluoro-3-hydroxy-3-methylbutyl)nicotinamide]	66	< 1
CC(C)(O)[C@H](F)CNC(=O)c1cnc(-c2ccc3cc(C#N)cnn23)cc1Nc1ccc(N2CCOCC2)nc1 [Example 673, (R)-6-(3-cyanopyrrolo[1,2-b]pyridazin-7-yl)-N-(2-fluoro-3-hydroxy-3-methyl-butyl)-4-((6-morpholino-pyridin-3-yl)amino) nicotinamide]	19	< 1
CNC(=O)c1ncc(Nc2cc(-c3ccc4cc(C#N)cnn34)ncc2C(=O)NC[C@@H](F)C(C)(C)O)cn1 [Example 674, (R)-5-((2-(3-cyano-pyrrolo[1,2-b]pyridazin-7-yl)-5-((2-fluoro-3-hydroxy-3-methylbutyl)carbamoyl)pyridin-4-yl)amino)-N-methyl-pyrimidine-2-carboxamide]	67	< 1
CC(C)(O)[C@H](F)CNC(=O)c1cnc(-c2ccc3cc(C#N)cnn23)cc1Nc1ccc(N2CCC2)nc1 [Example 675, (R)-4-((6-(azetidin-1-yl)pyridin-3-yl)amino)-6-(3-cyanopyrrolo[1,2-b]pyridazin-7-yl)-N-(2-fluoro-3-hydroxy-3-methylbutyl)nicotinamide]	23	< 1
CC(C)(O)[C@H](F)CNC(=O)c1cnc(-c2ccc3cc(C#N)cnn23)cc1Nc1ccc(CC#N)nc1 [Example 678, (R)-4-((6-(cyanomethyl)pyridin-3-yl)amino)-6-(3-cyanopyrrolo[1,2-b]pyridazin-7-yl)-N-(2-fluoro-3-hydroxy-3-methylbutyl)nicotinamide]	9	< 1
CN(C)c1ccc(Nc2cc(-c3ccc4cc(C#N)cnn34)ncc2C(=O)NC[C@@H](F)C(C)(C)O)cn1 [Example 679, (R)-6-(3-cyanopyrrolo[1,2-b]pyridazin-7-yl)-4-((6-(dimethylamino)pyridin-3-yl)amino)-N-(2-fluoro-3-hydroxy-3-methylbutyl)nicotinamide]	17	< 1
CCc1ncc(Nc2cc(-c3ccc4cc(C#N)cnn34)ncc2C(=O)NC[C@@H](F)C(C)(C)O)cn1 [Example 680, (R)-6-(3-cyanopyrrolo[1,2-b]pyridazin-7-yl)-4-((2-ethylpyrimidin-5-yl)amino)-N-(2-fluoro-3-hydroxy-3-methylbutyl)nicotinamide]	15	< 1
CC(C)(O)[C@H](F)CNC(=O)c1cnc(-c2ccc3cc(C#N)cnn23)cc1Nc1cnc(N2CCC2)nc1 [Example 681, (R)-4-((2-(azetidin-1-yl)pyrimidin-5-yl)amino)-6-(3-cyanopyrrolo[1,2-b]pyridazin-7-yl)-N-(2-fluoro-3-hydroxy-3-methylbutyl) nicotinamide]	6	< 1
CC(C)(O)[C@H](F)CNC(=O)c1cnc(-c2ccc3cc(C#N)cnn23)cc1Nc1ccc(N2CC(F)(F)C2)nc1 [Example 682, (R)-6-(3-cyanopyrrolo[1,2-b]pyridazin-7-yl)-4-((6-(3,3-difluoroazetidin-1-yl)pyridin-3-yl)amino)-N-(2-fluoro-3-hydroxy-3-methylbutyl) nicotinamide]	22	1
CC(C)(C#N)c1ccc(Nc2cc(-c3ccc4cc(C#N)cnn34)ncc2C(=O)NC[C@@H](F)C(C)(C)O)cn1 [Example 683, (R)-4-((6-(2-cyanopropan-2-yl)pyridin-3-yl)amino)-6-(3-cyanopyrrolo[1,2-b]pyridazin-7-yl)-N-(2-fluoro-3-hydroxy-3-methyl-butyl)nicotinamide]	45	1
CC(C)(O)[C@H](F)CNC(=O)c1cnc(-c2ccc3cc(C#N)cnn23)cc1Nc1ccc(N2CC3(COC3)C2)nc1 [Example 684, (R)-4-((6-(2-oxa-6-azaspiro[3.3]heptan-6-yl)pyridin-3-yl)amino)-6-(3-cyanopyrrolo[1,2-b]pyridazin-7-yl)-N-(2-fluoro-3-hydroxy-3-methylbutyl)nicotinamide]	89	1
COc1cc(Nc2cc(-c3ccc4cc(C#N)cnn34)ncc2C(=O)NC[C@@H](F)C(C)(C)O)ccc1N1CCOCC1 [Example 685, (R)-6-(3-cyanopyrrolo[1,2-b]pyridazin-7-yl)-N-(2-fluoro-3-hydroxy-3-methylbutyl)-4-((3-methoxy-4-morpholino-phenyl)amino)nicotinamide]	398	10
C[C@@H]1CN(c2ncc(Nc3cc(-c4ccc5cc(C#N)cnn45)ncc3C(=O)NC[C@@H](F)C(C)(C)O)cn2)C[C@H](C)O1 [Example 686, 6-(3-cyanopyrrolo[1,2-b]pyridazin-7-yl)-4-((2-((2S,6R)-2,6-dimethyl-morpholino)pyrimidin-5-yl)amino)-N-((R)-2-fluoro-3-hydroxy-3-methylbutyl) nicotinamide]	20	< 1
CC(C)(O)[C@H](F)CNC(=O)c1cnc(-c2ccc3cc(C#N)cnn23)cc1Nc1ccc(F)cn1 [Example 687, (R)-6-(3-cyanopyrrolo[1,2-b]pyridazin-7-yl)-N-(2-fluoro-3-hydroxy-3-methylbutyl)-4-((5-fluoro-pyridin-2-yl)amino) nicotinamide]	42	< 1
CC(C)(O)[C@H](F)CNC(=O)c1cnc(-c2ccc3cc(C#N)cnn23)cc1Nc1ccc(N2CCS(=O)(=O)CC2)cc1 [Example 688, (R)-6-(3-cyanopyrrolo[1,2-b]pyridazin-7-yl)-4-((4-(1,1-dioxidothiomorpholino)phenyl)amino)-N-(2-fluoro-3-hydroxy-3-methylbutyl) nicotinamide]	24	< 1
CC(C)(O)[C@H](F)CNC(=O)c1cnc(-c2ccc3cc(C#N)cnn23)cc1Nc1cnc(N2CC3(CCOCC3)C2)nc1 [Example 689, (R)-4-((2-(7-oxa-2-azaspiro[3.5]nonan-2-yl)pyrimidin-5-yl)amino)-6-(3-cyanopyrrolo[1,2-b]pyridazin-7-yl)-N-(2-fluoro-3-hydroxy-3-methylbutyl)nicotinamide]	180	1
CC(C)(O)[C@H](F)CNC(=O)c1cnc(-c2ccc3cc(C#N)cnn23)cc1N[C@H]1C[C@H](CN)C1 [Example 692, 4-(((1r,3R)-3-(amino-methyl)cyclobutyl)amino)-6-(3-cyanopyrrolo[1,2-b]pyridazin-7-yl)-N-((R)-2-fluoro-3-hydroxy-3-methylbutyl)nicotinamide]	315	1
CC(C)(O)[C@H](F)CNC(=O)c1cnc(-c2ccc3cc(C#N)cnn23)cc1-c1ccc2cc(C#N)cnn12 [Example 693, (R)-4,6-bis(3-cyano-pyrrolo[1,2-b]pyridazin-7-yl)-N-(2-fluoro-3-hydroxy-3-methylbutyl)nicotinamide]	821	35
Cc1nnc(NC[C@H]2C[C@H](Nc3cc(-c4ccc5cc(C#N)cnn45)ncc3C(=O)NC[C@@H](F)C(C)(C)O)C2)o1 [Example 694, 6-(3-cyanopyrrolo[1,2-b]pyridazin-7-yl)-N—((R)-2-fluoro-3-hydroxy-3-methylbutyl)-4-(((1r,3R)-3-(((5-methyl-1,3,4-oxadiazol-2-yl)amino)methyl)cyclobutyl)amino)nicotinamide]	102	< 1
CC(C)(O)[C@H](F)CNC(=O)c1cnc(-c2ccc3cc(C#N)cnn23)cc1N[C@H]1C[C@H](CNC(=O)C2CC2(F)F)C1 (stereo partly drawn) [Example 695, 6-(3-cyanopyrrolo[1,2-b]pyridazin-7-yl)-4-(((1R,3R)-3-(((R)-2,2-difluorocyclopropane-1-carboxamido)methyl)cyclobutyl)amino)-N-((R)-2-fluoro-3-hydroxy-3-methylbutyl)nicotinamide]	15	< 1
CC(C)(O)[C@H](F)CNC(=O)c1cnc(-c2ccc3cc(C#N)cnn23)cc1N[C@H]1C[C@H](CNc2nnc(C3CC3)o2)C1 [Example 696, 6-(3-cyanopyrrolo[1,2-b]pyridazin-7-yl)-4-(((1r,3R)-3-(((5-cyclopropyl-1,3,4-oxadiazol-2-yl)amino)methyl)cyclobutyl)amino)-N-((R)-2-fluoro-3-hydroxy-3-methylbutyl)nicotinamide]	103	< 1
